Source: article PMC3951249 (Bioorganic & medicinal chemistry letters, 2014)
Blank lines part the entries; values can stand above or below the compound they belong to.

Tests used:
GlyT1 [1] = molecular target: T1, GlyT1 (Homo sapiens, UniProt P48067); experiment: GlyT1 inhibition, [14C]-glycine uptake assay; assay type: cell-based; settings: for loss in GlyT1 potency relative to piperidine analog: 4a vs 2, 4b vs 1
T1 sequence (P48067 1-706): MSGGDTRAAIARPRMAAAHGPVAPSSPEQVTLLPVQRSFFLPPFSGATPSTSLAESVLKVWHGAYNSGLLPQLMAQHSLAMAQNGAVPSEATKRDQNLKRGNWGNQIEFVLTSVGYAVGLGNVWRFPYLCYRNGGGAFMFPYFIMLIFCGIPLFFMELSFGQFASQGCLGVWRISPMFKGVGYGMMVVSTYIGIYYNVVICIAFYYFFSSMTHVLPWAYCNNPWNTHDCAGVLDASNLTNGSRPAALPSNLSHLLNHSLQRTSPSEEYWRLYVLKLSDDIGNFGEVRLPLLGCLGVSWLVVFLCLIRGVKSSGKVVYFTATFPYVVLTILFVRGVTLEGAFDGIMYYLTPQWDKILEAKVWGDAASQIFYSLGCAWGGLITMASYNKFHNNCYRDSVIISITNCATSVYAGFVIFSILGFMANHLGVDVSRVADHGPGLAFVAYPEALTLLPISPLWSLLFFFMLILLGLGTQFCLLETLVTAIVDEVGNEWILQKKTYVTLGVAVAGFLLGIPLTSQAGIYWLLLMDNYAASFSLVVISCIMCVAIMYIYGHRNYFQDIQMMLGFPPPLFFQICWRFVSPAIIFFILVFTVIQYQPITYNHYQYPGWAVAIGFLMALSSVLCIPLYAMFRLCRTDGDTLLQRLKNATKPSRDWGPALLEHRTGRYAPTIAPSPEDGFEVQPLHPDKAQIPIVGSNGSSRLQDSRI

CYP (isoforms not named) = experiment: CYP profile; assay type: in vitro ADME
[2] = data reported for Merck's 2; cited from earlier work
[3] = system: prepulse inhibition (PPI) of the rodent acoustic startle response; experiment: prepulse inhibition; assay type: in vivo; settings: rat, 30 mg/kg p.o.
GlyT1 [4] = molecular target: T1, GlyT1; settings: ref 13-15 (1 and 2), ref 5-8 (NFPS); cited from earlier work
GlyT1 [5] = molecular target: T1, GlyT1; settings: 30 mg/kg oral; cited from earlier work
[6] = data reported for Merck's 2; cited from earlier work; remark: listed apart in the source
[7] = in vitro intrinsic clearance, rat; assay type: in vitro ADME; settings: from in vitro intrinsic clearance
GlyT2 = molecular target: T2, GlyT2 (Homo sapiens, UniProt Q9Y345); experiment: GlyT2 inhibition; assay type: cell-based
T2 sequence (Q9Y345 1-797): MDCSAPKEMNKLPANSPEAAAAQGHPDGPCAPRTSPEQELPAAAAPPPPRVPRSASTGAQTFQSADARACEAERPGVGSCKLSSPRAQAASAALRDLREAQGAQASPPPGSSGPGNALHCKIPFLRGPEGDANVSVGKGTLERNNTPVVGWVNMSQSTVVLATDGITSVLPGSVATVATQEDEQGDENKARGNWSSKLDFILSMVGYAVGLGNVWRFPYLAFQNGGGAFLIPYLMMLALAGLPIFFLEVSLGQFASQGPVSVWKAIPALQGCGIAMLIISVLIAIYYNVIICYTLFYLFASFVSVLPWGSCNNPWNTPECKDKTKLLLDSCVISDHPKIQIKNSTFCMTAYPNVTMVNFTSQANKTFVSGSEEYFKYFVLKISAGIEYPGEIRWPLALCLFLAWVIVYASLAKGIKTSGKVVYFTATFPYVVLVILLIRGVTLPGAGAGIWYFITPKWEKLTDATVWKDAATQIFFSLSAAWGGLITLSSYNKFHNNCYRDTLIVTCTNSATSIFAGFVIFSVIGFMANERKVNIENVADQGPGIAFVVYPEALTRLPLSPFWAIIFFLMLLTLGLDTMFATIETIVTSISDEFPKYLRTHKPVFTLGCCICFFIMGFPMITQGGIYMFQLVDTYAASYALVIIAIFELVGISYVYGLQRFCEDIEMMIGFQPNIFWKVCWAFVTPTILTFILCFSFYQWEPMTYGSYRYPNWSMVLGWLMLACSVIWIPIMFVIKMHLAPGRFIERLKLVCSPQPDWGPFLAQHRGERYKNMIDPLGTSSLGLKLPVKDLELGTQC

[8] = fraction unbound in human plasma; assay type: in vitro ADME; settings: fu (hum)
stability in rat plasma = assay type: in vitro ADME; settings: 4 hours at 37 °C
CYP3A4 = CYP3A4 (Homo sapiens, UniProt P08684); experiment: CYP inhibition; assay type: in vitro ADME
Sequence of CYP3A4 (P08684 whole entry): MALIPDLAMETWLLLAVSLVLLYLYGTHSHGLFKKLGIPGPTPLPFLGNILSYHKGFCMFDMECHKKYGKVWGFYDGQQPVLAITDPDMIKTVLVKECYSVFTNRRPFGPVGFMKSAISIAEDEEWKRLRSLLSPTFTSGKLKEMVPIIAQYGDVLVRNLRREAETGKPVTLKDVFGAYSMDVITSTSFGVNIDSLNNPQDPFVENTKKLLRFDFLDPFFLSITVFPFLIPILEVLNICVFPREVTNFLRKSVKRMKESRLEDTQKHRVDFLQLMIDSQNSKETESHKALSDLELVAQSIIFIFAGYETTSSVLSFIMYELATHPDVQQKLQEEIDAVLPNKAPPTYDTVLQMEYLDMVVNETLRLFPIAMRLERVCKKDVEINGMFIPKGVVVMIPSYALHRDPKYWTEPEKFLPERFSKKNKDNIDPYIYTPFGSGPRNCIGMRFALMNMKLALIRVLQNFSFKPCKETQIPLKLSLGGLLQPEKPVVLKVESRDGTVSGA

[9] = in vitro intrinsic clearance, human; assay type: in vitro ADME; settings: from in vitro intrinsic clearance
[10] = system: 68 GPCRs, ion channels and transporters; experiment: Eurofin Lead Profiling panel of radioligand binding assays; settings: @10 μM, 68 targets
[11] = brain tissue distribution study; assay type: in vivo; settings: rat

Compound: Cn1cnc(S(=O)(=O)N2C[C@@H]3[C@H](C2)[C@@]3(CNC(=O)c2ccc(Cl)cc2Cl)c2ccccn2)c1 [Compound 10]
- IC50 (CYP (isoforms not named)): > 30 µM

Compound: CCS(=O)(=O)N1CCC(CNC(=O)c2ccc(Cl)cc2Cl)(CC2CC2)CC1 [Compound 2]
- clearance in rat [2]: moderate to high clearance
- effect on basal startle amplitude during no-stimulus trials [3]: no effect
- known mechanism of action with respect to glycine (GlyT1 [4]): competitive
- occupancy (GlyT1 [5]): > 90%
- clearance in dog [6]: low clearance

Compound: Cn1cnc(S(=O)(=O)N2C[C@@H]3[C@H](C2)[C@@]3(CNC(=O)c2ccccc2C(F)(F)F)c2ccccn2)c1 [Compound 11]
- IC50 (CYP (isoforms not named)): > 30 µM

Compound: CCCS(=O)(=O)N1CCC(c2ccccc2)([C@H](C)NC(=O)c2ccc(Cl)cc2Cl)CC1 [Compound 1]
- known mechanism of action with respect to glycine (GlyT1 [4]): competitive

Now from value to compound, other results behind:

- loss in GlyT1 potency relative to piperidine analog (GlyT1 [1]): ~ 150 fold
Compound: CCCS(=O)(=O)N1C[C@@H]2[C@H](C1)[C@@]2(CNC(=O)c1ccc(Cl)cc1Cl)CC1CC1 [Compound 4b]

- loss in GlyT1 potency relative to piperidine analog (GlyT1 [1]): 50 fold
Compound: CCS(=O)(=O)N1C[C@@H]2[C@H](C1)[C@@]2(CNC(=O)c1ccc(Cl)cc1Cl)CC1CC1 [Compound 4a]

- predicted hepatic clearance ClHEP [7]: 43.0 mL/min/kg
- IC50 (GlyT2): > 30 µM
- fraction unbound [8]: 0.068
- stability in rat plasma (stability in rat plasma): stable
- IC50 (CYP3A4): 14.9 µM
- predicted hepatic clearance ClHEP [9]: 17.7 mL/min/kg
- inhibition against any target in the panel [10]: ≤ 50%
- brain AUC0-6hr ([11]; 10 mg/kg p.o. in 0.5% methocellulose): 0.956 µM·h
- brain AUC0-6hr ([11]; 10 mg/kg s.c. in 10% tween 80): 0.431 µM·h
Compound: Cn1cnc(S(=O)(=O)N2C[C@@H]3[C@H](C2)[C@@]3(CNC(=O)c2ccccc2C(F)(F)F)CC2CC2)c1 [Compound 12d]
- effect on basal startle amplitude during no-stimulus trials [3]: no effect

- mechanism of inhibition with respect to glycine (Eadie-Hoffstee plot) (GlyT1 [1]; [14C]-glycine transport, 40 nM 12c): competitive
Compound: Cn1cnc(S(=O)(=O)N2C[C@@H]3[C@H](C2)[C@@]3(CNC(=O)c2c(Cl)cccc2Cl)CC2CC2)c1 [Compound 12c]
